{"source": "patent US20090163548A1", "about": "“Method of using and comopositions comprising immunomodulatory compounds for the treatment and management of myeloproliferative diseases” (priority 2004, published 2009)", "key": {"[1]": {"tested_on": "TNF-α", "test": "Inhibition of TNF-α production following LPS-stimulation of human PBMC", "format": "cell-based", "settings": "LPS-stimulated, read-out: IC50 for inhibiting production of TNF-α following LPS-stimulation of PBMC", "from_the_text": "(§1) Inhibition of TNF-α production following LPS-stimulation of human PBMC and human whole blood by 3-(4-amino-1-oxo-1,3-dihydro-isoindol-2-yl)-piperidine-2,6-dione or thalidomide was investigated in vitro (Muller et al., Bioorg. Med. Chem. Lett. 9:1625-1630, 1999)."}, "[2]": {"tested_on": "various cytokines", "test": "In vitro studies of effects on the production of various cytokines, comparison with thalidomide", "format": "cell-based", "settings": "in all in vitro cytokine production studies", "from_the_text": "The pharmacological properties of 3-(4-amino-1-oxo-1,3-dihydro-isoindol-2-yl)-piperidine-2,6-dione, including activity comparisons with thalidomide, have been characterized in in vitro studies. Studies examined the effects of 3-(4-amino-1-oxo-1,3-dihydro-isoindol-2-yl)-piperidine-2,6-dione or thalidomide on the production of various cytokines. […] In addition, a safety pharmacology study of 3-(4-amino-1-oxo-1,3-dihydro-isoindol-2-yl)-piperidine-2,6-dione has been conducted in dogs and the effects of 3-(4-amino-1-oxo-1,3-dihydro-isoindol-2-yl)-piperidine-2,6-dione on ECG parameters were examined further as part of three repeat-dose toxicity studies in primates."}, "[3]": {"settings": "dog, in vivo", "description": "The effects of 3-(4-amino-1-oxo-1,3-dihydro-isoindol-2-yl)-piperidine-2,6-dione on cardiovascular and respiratory function were investigated in anesthetized dogs. Two groups of Beagle dogs (2/sex/group) were used. One group received three doses of vehicle only and the other received three ascending doses of 3-(4-amino-1-oxo-1,3-dihydro-isoindol-2-yl)-piperidine-2,6-dione (2, 10, and 20 mg/kg). In all cases, doses of 3-(4-amino-1-oxo-1,3-dihydro-isoindol-2-yl)-piperidine-2,6-dione or vehicle were successively administered via infusion through the jugular vein separated by intervals of at least 30 minutes.\nThe only statistically significant difference between the vehicle and treatment groups was a small increase in arterial blood pressure (from 94 mmHg to 101 mmHg) following administration of the low dose of 3-(4-amino-1-oxo-1,3-dihydro-isoindol-2-yl)-piperidine-2,6-dione."}, "[4]": {"tested_on": "TNF-α", "test": "Inhibition of TNF-α production following LPS-stimulation of human whole blood", "format": "cell-based", "settings": "LPS-stimulated, read-out: IC50 for inhibiting production of TNF-α following LPS-stimulation of human whole blood", "from_the_text": "as §1"}}}
{"smiles": "Nc1cccc2c1CN(C1CCC(=O)NC1=O)C2=O", "note": "(stereo not shown) [3-(4-amino-1-oxo-1,3-dihydro-isoindol-2-yl)-piperidine-2,6-dione]", "values": [{"measurement": "IC50", "setting": "[1]", "result": "~100", "unit": "nM"}, {"measurement": "Potency relative to thalidomide", "setting": "[2]", "result": "at least 50 times"}, {"measurement": "Arterial blood pressure after administration", "setting": "[3]; both, Beagle, 2 mg/kg", "result": 101, "unit": "mmHg"}, {"measurement": "Duration of the increase in arterial blood pressure", "setting": "[3]; both, Beagle, 2 mg/kg", "result": "approximately 15 minutes"}, {"measurement": "Deviations in femoral blood flow, respiratory parameters, and Qtc interval", "setting": "[3]", "result": "not considered treatment-related"}, {"measurement": "Increase in arterial blood pressure at higher doses", "setting": "[3]", "result": "not seen at higher doses"}, {"measurement": "IC50", "setting": "[4]", "result": "~480", "unit": "nM"}]}
